# Results as given in patent US12642794B2, “Dose regimens for use of LY3154207 in the treatment of dopaminergic CNS disorders” (Eli Lilly and Company, priority 2018, dated 2026).
# “Also recorded” adds a separate entry of the source. Read-outs that look alike come from different tables or passages of the source.
# Legend:
# Assay type in all cases: in vivo, human
# healthy subjects = experiment: HBEA ambulatory blood pressure monitoring (ABPM): blood pressure and pulse rate
# Procedure: This is a phase 1, SAD, crossover design of LY3154207 in healthy subjects conducted in 2 alternating cohorts with dose escalation. Subjects are dosed at 25 mg, 75 mg, 100 mg, 150 mg and 200 mg or placebo. Safety parameters assessed include adverse events (AEs), safety laboratories, vital signs, ambulatory blood pressure monitoring (ABPM) and electrocardiogram (ECG). Subjects provide blood samples after dosing to measure plasma concentrations of LY3154207 for assessment of PK.
# Eighteen subjects enrolled with 17 subjects completing the study. […] One subject withdrew due to anxiety following a 150 mg dose. A total of 111 treatment emergent AEs occurred and were mostly mild (101/111). Insomnia, decreased appetite, anxiety, dizziness, headache, nausea, upper abdominal pain, and dysgeusia were the most common AEs and the majority (69/111) occurred at doses ≥100 mg. A dose-related signal for increases in pulse and blood pressure occurred and resolved in 24 hours. […] The administered LY3154207 dose excreted in urine was 0.02%. […] Data indicating a dose-related signal for increases in pulse and blood pressure also indicate the dosing regimens of the present invention may provide an improved combination of efficacy, safety, and clinical tolerability for use of LY3154207 which can avoid and/or minimize these undesirable effects. […] In HBEA Part A, treatment-related adverse events (AEs) occurred primarily at doses ≥100 mg and were mostly mild. In HBEA Part B, treatment-related AEs occurred only at 75 mg (25% of subjects) and were all mild: energy increased, anxiety, decreased appetite, and dizziness. […] Based on ABPM, the 4- to 8-hour estimates of the difference in least squares means for LY3154207 200 mg vs. placebo were 32 beats per minute (bpm) for pulse rate, and 14 mm Hg and 10 mm Hg for systolic and diastolic blood pressure, respectively.
# [1] = HBEA Part B cerebrospinal fluid (CSF) pharmacokinetics after a single dose
# Description: (§1) HBEA is a single ascending dose study of a D1 receptor positive allosteric modulator LY3154207 in healthy volunteers. Study HBEA aims to determine the safety, tolerability, and peripheral and central pharmacokinetics (PK) of single ascending doses of LY3154207 in healthy subjects. Study HBEB aims to evaluate the effect of single-dose LY3154207 on sleep latency in sleep-deprived healthy male subjects as measured by a multiple sleep latency test (MSLT). HBEA was a Phase 1, 2-part, randomized, double-blind, placebo-controlled study in healthy males or females. Part A has a 3-period crossover design with 2 alternating, single-dose escalating cohorts, and subjects were randomized to LY3154207 (n=6) or placebo (n=3) in each cohort in each dosing period. Part B has a single-period, single-dose, 2-cohort design with cerebrospinal fluid (CSF) sampling, and subjects were randomized to LY3154207 (n=8) or placebo (n=4) in each cohort.
# HBEA Part B is a study of Cerebrospinal fluid (CSF) and plasma pharmacokinetic (PK) profile following a single dose of LY3154207 in healthy volunteers. The objective of the study is to determine the CSF and plasma PK profile of LY3154207 in a single dose study m healthy volunteers. This study consisted of 2 cohorts in a single-dose, single-period, placebo-controlled, randomized, double-blind, parallel-group study. Subjects were randomized to 25 mg and 75 mg and underwent serial blood and CSF sampling at 2 hours pre-dose and 24 hours post-dose to measure concentrations of LY3154207. Twenty-four subjects enrolled and all completed the study. […] Concentrations of LY3154207 in CSF were detectable up to 8 h after a dose of 25 mg and up to 24 hours after a dose of 75 mg. At each dose about 1% of the total LY3154207 exposure in plasma was available in CSF. At 25 mg and 75 mg, central penetration of LY3154207 was confirmed by measurement of LY3154207 in CSF supporting its use according to the dosing regimens of the present invention in dopaminergic CNS disorders.
# healthy volunteers = experiment: HBEA Part B adverse events; details: 75 mg, all mild
# Description: as §1
# HBEA Part B is a study of Cerebrospinal fluid (CSF) and plasma pharmacokinetic (PK) profile following a single dose of LY3154207 in healthy volunteers. The objective of the study is to determine the CSF and plasma PK profile of LY3154207 in a single dose study m healthy volunteers. This study consisted of 2 cohorts in a single-dose, single-period, placebo-controlled, randomized, double-blind, parallel-group study. […]
# [2] = tested on: sleep-deprived healthy male subjects; experiment: HBEB sleep latency study: multiple sleep latency test (MSLT), Karolinska Sleepiness Scale; details: for effect on wakefulness / sleep latency: single doses 15 mg to 75 mg
# Description: FIG. 2: HBEB, a Phase 1, single-dose, randomized, placebo-controlled, 4-period, incomplete crossover study in sleep-deprived healthy male subjects (n=17). Effects of a single dose of LY3154207 on wakefulness as measured by the multiple sleep latency test (MSLT) in sleep deprived healthy male subjects. Sleep latency is time from start of MSLT to first detection of sleep (minutes). […] CI=confidence interval: LS-least squares: MSLT=multiple sleep latency test.
# Dose dependent activating adverse events were also observed in a single ascending dose study. To determine the effects of a single dose of LY3154207 was studied on wakefulness as measured by the multiple sleep latency test (MSLT) in sleep deprived healthy male subjects. HBEB was a Phase 1, single-dose, randomized, placebo-controlled, 4-period, incomplete crossover study in sleep-deprived healthy male subjects (n=17). Subjects were randomized to receive a single dose of either placebo, LY3154207 15, 30, or 75 mg (double-blind), or modafinil (open-label control). In each period, subjects were sleep deprived for approximately 26 hours before dosing and approximately 12 hours post-dose. MSLT was conducted every 2 hours until 10 hours post-dose. Analysis based on mixed-model repeated measures included treatment, period, time, and the treatment-by-time interaction as fixed effects, and subject as a random effect: overall sleep latency was the average of the 4 post-dose sleep latencies. All subjects are randomized to receive 4 out of 5 available single dose treatments (15, 30, 75 mg LY3154207, placebo or modafanil 200 mg) with all subjects receiving placebo. The washout period is at least 7 days. MSLT is the primary assessment of wakefulness. Secondary outcomes include the Karolinska Sleepiness Scale (KSS), EEG and a simple reaction performance task. Blood samples are collected to measure plasma concentrations of LY3154207 and modafinil. Seventeen subjects are enrolled and received at least one dose of study drug with sixteen subjects completing all 4 periods of the trial. A dose dependent increase in MSLT is observed with least square means (95% CI) difference compared to placebo of 5.2 minutes (3.3,7.1) for 75 mg, 3.2 minutes (1.4, 5.1) for 30 mg, 1.3 minutes (−0.6, 3.2) for 15 mg, as shown in FIG. 2. […] PK is linear with a Cmax and t1/2 of approximately 3 and 9 hours across the dose range.
# [3] = HBEB plasma pharmacokinetics
# Description: Dose dependent activating adverse events were also observed in a single ascending dose study. To determine the effects of a single dose of LY3154207 was studied on wakefulness as measured by the multiple sleep latency test (MSLT) in sleep deprived healthy male subjects. HBEB was a Phase 1, single-dose, randomized, placebo-controlled, 4-period, incomplete crossover study in sleep-deprived healthy male subjects (n=17). Subjects were randomized to receive a single dose of either placebo, LY3154207 15, 30, or 75 mg (double-blind), or modafinil (open-label control). In each period, subjects were sleep deprived for approximately 26 hours before dosing and approximately 12 hours post-dose. MSLT was conducted every 2 hours until 10 hours post-dose. Analysis based on mixed-model repeated measures included treatment, period, time, and the treatment-by-time interaction as fixed effects, and subject as a random effect: overall sleep latency was the average of the 4 post-dose sleep latencies. All subjects are randomized to receive 4 out of 5 available single dose treatments (15, 30, 75 mg LY3154207, placebo or modafanil 200 mg) with all subjects receiving placebo. The washout period is at least 7 days. MSLT is the primary assessment of wakefulness. Secondary outcomes include the Karolinska Sleepiness Scale (KSS), EEG and a simple reaction performance task. […]
# [4] = 200 mg, ABPM 4- to 8-hour estimate
smiles,measurement,setting,value
C[C@H]1c2cccc(CCC(C)(C)O)c2C[C@H](CO)N1C(=O)Cc1c(Cl)cccc1Cl [LY3154207],"diastolic blood pressure, difference in least squares means vs. placebo",healthy subjects; [4],10 mm Hg
same,"pulse rate, difference in least squares means vs. placebo",healthy subjects; [4],32 bpm
same,"systolic blood pressure, difference in least squares means vs. placebo",healthy subjects; [4],14 mm Hg
same,time to resolution of increases in blood pressure and pulse rate,"healthy subjects; ABPM, mostly resolving",≤ 24 h
same,effect on blood pressure and pulse rate measured by ABPM,"healthy subjects; single doses 25-200 mg, diurnal rhythm preserved",dose-related increase
same,central penetration by measurement in CSF,[1]; 25 and 75 mg,confirmed
same,time for which concentrations in CSF were detectable,[1]; after a dose of 25 mg,up to 8 h
same,time for which concentrations in CSF were detectable,[1]; after a dose of 75 mg,up to 24 hours
same,Kp,"[1]; both sexes, human, CSF, 25 mg and 75 mg, read-out: share of total plasma exposure available in CSF",~0.01
same,Tmax,"[1]; both sexes, human, CSF, read-out: CSF median tmax",3 to 4 h
same,half-life,"[1]; both sexes, human, CSF, read-out: CSF t1/2 (converted)",8 h
same,Kp,"[1]; both sexes, human, CSF, read-out: CSF/unbound plasma ratio",0.3
same,subjects with treatment-related AEs,healthy volunteers,25%
same,"MSLT sleep latency, least square means difference compared to placebo",[2]; single dose 15 mg,1.3 min
same,"MSLT sleep latency, least square means difference compared to placebo",[2]; single dose 30 mg,3.2 min
same,"MSLT sleep latency, least square means difference compared to placebo",[2]; single dose 75 mg,5.2 min
same,effect on wakefulness / sleep latency,[2],improves wakefulness in a dose dependent manner; also recorded: linear and dose-dependent effect on sleep latency
same,effect on wakefulness / sleep latency,[2]; listed as LY3144207,increases wakefulness
same,alertness measured by the Karolinska sleepiness scale,"[2]; single doses 15, 30, 75 mg",dose-dependent increase in alertness
same,linearity of PK,[3],linear
same,half-life,"[3]; male, human, plasma, across the dose range",~9 h
